Assays:
[1] = Volume of distribution at steady state in Sprague-Dawley rat at 1 mg/kg, iv measured for 24 hrs by LC-MS/MS analysis; type: ADME, organism-based; details: in vivo, read-out: Vdss
Homo sapiens [2] = organism: Homo sapiens; test: Selectivity ratio of IC50 for human 5HT2B receptor to IC50 for human 5HT1F receptor
[3] = Cmax in monkey at 1 mg/kg, ig administered for 28 days by LC-MS/MS analysis; type: ADME, organism-based, Macaca mulatta; design: route intragastric, dose 1 mg/kg, time 28 day; details: rhesus monkey, in vivo, po
[4] = Toxicity in NewZealand rabbit Saphenous vein rings assessed as induction of vasoconstriction at 0.01 to 100 uM; type: tissue-based, Oryctolagus cuniculus; details: dose 0.01-100 µM
[5] = target: 5-HT1A/5-HT1F (Homo sapiens) (UniProt P30939+P08908); test: Selectivity ratio of IC50 for human 5HT1A receptor to IC50 for human 5HT1F receptor; type: protein assay
[6] = AUC(0 to t) in Sprague-Dawley rat at 1 mg/kg, iv measured for 24 hrs by LC-MS/MS analysis; type: ADME, organism-based; design: time 24 hrs, dose 1 mg/kg; details: in vivo
[7] = Bioavailability in Sprague-Dawley rat at 5 mg/kg, ig measured for 24 hrs by LC-MS/MS analysis; type: ADME, organism-based; details: in vivo, po
[8] = Toxicity in ig dosed monkey administered for 28 days; type: organism-based, Macaca mulatta; details: rhesus monkey, in vivo, po; time 28 day
[9] = AUC (0 to 24hrs) in Sprague-Dawley rat at 150 mg/kg, ig by LC-MS/MS analysis; type: ADME, organism-based; design: time < 24 hr, route intragastric, dose 150 mg/kg; details: in vivo, po
[10] = AUC (0 to 24hrs) in Sprague-Dawley rat at 15 mg/kg, ig by LC-MS/MS analysis; type: ADME, organism-based; design: time < 24 hr, route intragastric, dose 15 mg/kg; details: in vivo, po
[11] = Cmax in Sprague-Dawley rat at 15 mg/kg, ig administered for 28 days by LC-MS/MS analysis; type: ADME, organism-based; design: route intragastric, dose 15 mg/kg, time 28 day; details: in vivo, po
[12] = target: T1, 5-hydroxytryptamine receptor 2C (Homo sapiens, UniProt P28335); test: Binding affinity to human 5HT2C receptor
T1 sequence (P28335 whole entry): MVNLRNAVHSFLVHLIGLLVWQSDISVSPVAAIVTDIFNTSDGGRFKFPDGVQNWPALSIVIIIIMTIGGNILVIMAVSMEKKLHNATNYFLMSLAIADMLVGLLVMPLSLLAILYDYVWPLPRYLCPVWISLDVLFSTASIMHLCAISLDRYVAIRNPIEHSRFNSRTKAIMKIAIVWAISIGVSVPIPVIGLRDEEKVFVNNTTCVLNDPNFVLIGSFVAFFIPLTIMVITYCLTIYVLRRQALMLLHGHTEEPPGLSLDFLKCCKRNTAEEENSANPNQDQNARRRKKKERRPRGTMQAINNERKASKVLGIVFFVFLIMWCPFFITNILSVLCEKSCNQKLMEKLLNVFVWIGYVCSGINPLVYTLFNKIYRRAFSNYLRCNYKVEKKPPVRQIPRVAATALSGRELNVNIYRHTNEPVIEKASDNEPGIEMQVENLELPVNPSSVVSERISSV

[13] = Clearance in Sprague-Dawley rat at 1 mg/kg, iv measured for 24 hrs by LC-MS/MS analysis; type: ADME, organism-based; details: in vivo
[14] = Half life in Sprague-Dawley rat at 5 mg/kg, ig measured for 24 hrs by LC-MS/MS analysis; type: ADME, organism-based; details: in vivo, po
[15] = AUC (0 to 24hrs) in monkey at 25 mg/kg, ig by LC-MS/MS analysis; type: ADME, organism-based, Macaca mulatta; design: time < 24 hr, route intragastric, dose 25 mg/kg; details: rhesus monkey, in vivo, po
[16] = Toxicity in ig dosed Sprague-Dawley rat administered for 28 days; type: organism-based; details: in vivo, po, time 28 day
[17] = target: T2, 5-hydroxytryptamine receptor 1A (Homo sapiens, UniProt P08908); test: Binding affinity to human 5HT1A receptor
T2 sequence (P08908 whole entry): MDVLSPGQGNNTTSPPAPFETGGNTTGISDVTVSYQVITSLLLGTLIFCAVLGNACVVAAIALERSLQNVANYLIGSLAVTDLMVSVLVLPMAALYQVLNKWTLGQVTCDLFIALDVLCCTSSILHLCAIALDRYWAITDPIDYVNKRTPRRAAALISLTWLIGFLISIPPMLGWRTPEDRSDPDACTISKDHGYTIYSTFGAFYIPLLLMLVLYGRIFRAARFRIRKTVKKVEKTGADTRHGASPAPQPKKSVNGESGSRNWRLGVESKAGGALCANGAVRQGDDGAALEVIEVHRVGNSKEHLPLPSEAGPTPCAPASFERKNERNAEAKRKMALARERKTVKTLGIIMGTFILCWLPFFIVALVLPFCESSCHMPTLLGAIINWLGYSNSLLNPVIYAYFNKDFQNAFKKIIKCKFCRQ

Homo sapiens [18] = organism: Homo sapiens; test: Selectivity ratio of IC50 for human 5HT3 receptor to IC50 for human 5HT1F receptor
[19] = AUC (0 to 24hrs) in monkey at 5 mg/kg, ig by LC-MS/MS analysis; type: ADME, organism-based, Macaca mulatta; design: time < 24 hr, route intragastric, dose 5 mg/kg; details: rhesus monkey, in vivo, po
[20] = target: T3, 5-hydroxytryptamine receptor 1F (Homo sapiens, UniProt P30939); test: Agonist activity at 5HT1F receptor (unknown origin) expressed in HEK293 cells measured after 60 mins by Fluo-4AM dye based FLIPR assay; type: functional, cell-based; details: read-out: IC50 (the source's name)
T3 sequence (P30939 whole entry): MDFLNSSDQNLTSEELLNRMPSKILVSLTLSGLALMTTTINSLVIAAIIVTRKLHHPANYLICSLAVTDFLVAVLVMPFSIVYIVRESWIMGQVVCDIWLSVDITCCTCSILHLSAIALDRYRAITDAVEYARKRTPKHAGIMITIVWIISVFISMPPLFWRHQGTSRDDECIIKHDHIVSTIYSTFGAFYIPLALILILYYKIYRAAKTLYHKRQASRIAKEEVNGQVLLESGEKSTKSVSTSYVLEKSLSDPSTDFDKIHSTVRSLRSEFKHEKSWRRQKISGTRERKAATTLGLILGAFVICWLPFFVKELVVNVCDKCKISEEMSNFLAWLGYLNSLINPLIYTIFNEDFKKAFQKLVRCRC

[21] = target: 5-hydroxytryptamine receptor 2B (Homo sapiens, UniProt P41595); test: Binding affinity to human 5HT2B receptor
5-hydroxytryptamine receptor 2B, sequence (P41595 whole entry): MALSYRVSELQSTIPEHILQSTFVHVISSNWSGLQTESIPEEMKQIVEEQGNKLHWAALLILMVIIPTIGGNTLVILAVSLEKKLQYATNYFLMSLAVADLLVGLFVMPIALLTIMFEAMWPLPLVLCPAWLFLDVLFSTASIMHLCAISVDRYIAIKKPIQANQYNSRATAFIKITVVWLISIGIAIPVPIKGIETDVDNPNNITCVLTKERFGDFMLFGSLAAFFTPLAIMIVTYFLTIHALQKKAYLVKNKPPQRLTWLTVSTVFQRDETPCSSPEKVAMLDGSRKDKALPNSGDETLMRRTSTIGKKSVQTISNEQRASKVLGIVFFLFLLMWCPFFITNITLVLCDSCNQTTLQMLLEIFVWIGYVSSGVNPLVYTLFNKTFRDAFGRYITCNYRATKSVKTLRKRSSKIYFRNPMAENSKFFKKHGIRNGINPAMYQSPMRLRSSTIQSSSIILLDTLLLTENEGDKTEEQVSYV

[22] = Cmax in monkey at 25 mg/kg, ig administered for 28 days by LC-MS/MS analysis; type: ADME, organism-based, Macaca mulatta; design: route intragastric, dose 25 mg/kg, time 28 day; details: rhesus monkey, in vivo, po
[23] = Toxicity in Sprague-Dawley rat assessed as effect on inflammatory reaction at 150 mg/kg/day, ig administered for 28 days; type: organism-based; details: in vivo, po, 672 h, time 28 day
[24] = Cmax in monkey at 5 mg/kg, ig administered for 28 days by LC-MS/MS analysis; type: ADME, organism-based, Macaca mulatta; design: route intragastric, time 28 day, dose 5 mg/kg; details: rhesus monkey, in vivo, po
[25] = target: 5-HT1B/5-HT1F (Homo sapiens) (UniProt P30939+P28222); test: Selectivity ratio of IC50 for human 5HT1B receptor to IC50 for human 5HT1F receptor; type: protein assay
5-HT1B/5-HT1F (Homo sapiens), sequence (P28222 whole entry, looked up, one chain of several): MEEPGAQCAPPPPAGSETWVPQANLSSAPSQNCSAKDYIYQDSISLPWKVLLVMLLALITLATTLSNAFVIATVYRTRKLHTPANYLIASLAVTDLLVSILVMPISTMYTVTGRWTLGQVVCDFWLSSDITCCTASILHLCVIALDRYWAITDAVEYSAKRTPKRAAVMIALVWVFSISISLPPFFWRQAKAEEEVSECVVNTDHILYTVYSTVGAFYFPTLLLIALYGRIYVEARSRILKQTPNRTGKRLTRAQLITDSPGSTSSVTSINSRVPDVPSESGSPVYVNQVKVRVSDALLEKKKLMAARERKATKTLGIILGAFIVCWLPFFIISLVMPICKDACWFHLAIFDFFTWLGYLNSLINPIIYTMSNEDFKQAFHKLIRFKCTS

[26] = Cmax in Sprague-Dawley rat at 50 mg/kg, ig administered for 28 days by LC-MS/MS analysis; type: ADME, organism-based; design: route intragastric, time 28 day, dose 50 mg/kg; details: in vivo, po
Homo sapiens [27] = organism: Homo sapiens; test: Selectivity ratio of IC50 for human 5HT2C receptor to IC50 for human 5HT1F receptor
[28] = target: T4, 5-hydroxytryptamine receptor 1F (Homo sapiens) (UniProt P30939); test: Potency index, ratio of lasmiditan EC50 to test compound EC50 for agonist activity at 5HT1F receptor (unknown origin) expressed in HEK293 cells measured after 60 mins by Fluo-4AM dye based FLIPR assay; type: functional, cell-based
T4 sequence (whole entry): T3 sequence (P30939 whole entry)

CN1CCC(=C(F)c2cccc(NC(=O)c3c(F)cc(F)cc3F)n2)CC1
Vd [1]: 12.8 L/kg
Ratio IC50 (Homo sapiens [2]): > 10000
Cmax [3]: 764 ng/mL
Activity [4]: Non-Toxic
Ratio IC50 [5]: 472
AUC(0-t) at 24 h [6]: 128 ng·h/mL
bioavailability [7]: 64%
NOAEL at 672 h [8]: 5 mg/kg/day
AUC(0-t) at 24 h [9]: 10200 ng·h/mL
AUC(0-t) at 24 h [10]: 849 ng·h/mL
Cmax [11]: 160 ng/mL
IC50 [12]: 7.06 µM
clearance [13]: 127 mL/min/kg
half-life [14]: 2.95 h
AUC(0-t) at 24 h [15]: 67400 ng·h/mL
NOAEL at 672 h [16]: 50 mg/kg/day
IC50 [17]: 0.151 µM
Ratio IC50 (Homo sapiens [18]): > 10000
AUC(0-t) at 24 h [19]: 45200 ng·h/mL
EC50 [20]: 0.0196 µM
IC50 [21]: 8.61 µM
Cmax [22]: 3630 ng/mL
Activity [23]: Non-Toxic
Cmax [24]: 3410 ng/mL
Ratio IC50 [25]: > 10000
Cmax [26]: 523 ng/mL
Ratio IC50 (Homo sapiens [27]): > 10000
Ratio EC50 [28]: 4
